# Test results as given in patent US20190307141A1, “LACTIC ACID BACTERIAL FERMENTATION PROMOTING AGENT” (MEIJI CO., LTD., priority 2016, published 2019).
# Assays:
# Type in all cases: cell-based
# [1] = tested on: Streptococcus thermophilus OLS3059 strain; test: Fermentation promoting effect in UHT sterilized milk, pH of the fermentation liquid over time; settings: 43° C.; for fermentation promoting effect (pH of the fermentation liquid over time vs control): test substance 0.05 mmol/kg in UHT sterilized milk, starter 1% (vol/wt); for fermentation promoting effect (pH over time) of mixtures with guanosine in different mixing ratios: adenosine:guanosine 10:0, 7:3, 5:5, 3:7, inosine:guanosine 10:0, 7:3, 5:5, 4:6 (weight ratio), total 0.05 mmol/kg, UHT sterilized milk
# Experimental: (§1) The above test substances were each added to UHT sterilized milk (cow milk sterilized by a UHT method (ultrahigh temperature sterilization method); sterilized at 130° C. for 2 seconds), and warmed to 43° C. […] To the warmed UHT sterilized milk, Streptococcus thermophilus OLS3059 strain (accession number FERM BP-10740) was inoculated as a starter in an inoculation amount of 1% (vol/wt) (corresponding to a bacterial cell concentration of 1 to 2×10^7 cfu/mL), and the fermentation was started at 43° C. As a control, the fermentation using UHT sterilized milk without the above test substances was also carried out. Herein, S. thermophilus OLS3059 strain was cultured using MRS (Difco) at 37° C. for 16 hours for preparation of the bacterial cells to be used in the fermentation below. After culturing using MRS, the bacterial cells were collected by centrifugation (8,000 g for 5 minutes), and then suspended into 0.8% sodium chloride solution. The resulting bacterial cell suspension (bacterial cell concentration of 1 to 2×10^9 cfu/mL) was used as a starter. In the following Examples using S. thermophilus, a S. thermophilus bacterial suspension prepared according to the same method as the present Example was used as a starter, unless otherwise stated.
# The pH of the fermentation liquid was measured over time. A decrease in the pH in the lactic acid bacteria culture medium and the fermentation liquid indicates an increase in the amount of lactic acid production associated with the lactic acid bacterial fermentation and is used as an indicator of the progress degree of the lactic acid bacterial fermentation. […]
# In this test, a 10 mM solution of each of the test substances (purines) in 0.1N NaOH was added to UHT sterilized milk in an amount such that the concentration of the test substance in the UHT sterilized milk was 0.05 mmol/kg, whereby UHT sterilized milk supplemented with the test substance was prepared. Additionally, as a control, the fermentation using UHT sterilized milk without the test substances (purines) was also carried out.
# UHT sterilized milk supplemented with adenine which is a purine base, or a derivative thereof that is adenosine, deoxyadenosine, or adenylic acid (adenosine monophosphate; AMP) added as a test substance, was warmed to 43° C., subsequently S. thermophilus OLS3059 strain was inoculated as a starter in an amount of 1% (vol/wt), and the fermentation was started at 43° C. The pH of the fermentation liquid was measured over time. […]
# The fermentation promoting effect on S. thermophilus was examined by the same method as described in Example 2, except that mixtures of adenosine and guanosine in different mixing ratios or mixtures of inosine and guanosine in different mixing ratios were used as test substances.
# [2] = tested on: Lactobacillus helveticus OLL1482; test: Fermentation promoting effect in UHT sterilized milk, pH over time; settings: adenylic acid 0.05 mmol/kg or 1:1 mixture 0.025% (wt/wt); UHT sterilized milk with 0.2% casein-hydrolyzed peptide, 43° C.
# Experimental: as §1
# (§2) The pH of the fermentation liquid was measured over time. A decrease in the pH in the lactic acid bacteria culture medium and the fermentation liquid indicates an increase in the amount of lactic acid production associated with the lactic acid bacterial fermentation and is used as an indicator of the progress degree of the lactic acid bacterial fermentation.
# (§3) Starters (bacterial suspensions) were prepared from the respective bacterial strains by the same method as described in Example 1. The starter was inoculated in an inoculation amount of 1% (vol/wt). Except for these points, the fermentation promoting effect was evaluated in the same manner as in Example 1.
# (§4) The preparation method and the inoculation amount (%) of the starter are as described in Example 1. Except for these points, the fermentation promoting effect was evaluated in the same manner as in Example 1.
# [3] = tested on: Lactobacillus gasseri OLL2716; test: as above; settings: adenylic acid 0.05 mmol/kg or 1:1 mixture 0.025% (wt/wt); UHT sterilized milk with 0.2% casein-hydrolyzed peptide, 43° C.
# Experimental: as §1, §2, §3, §4
# [4] = tested on: Lactococcus lactis subsp. lactis OLS3445; test: as above; settings: adenylic acid 0.05 mmol/kg or 1:1 mixture 0.025% (wt/wt); UHT sterilized milk with 0.2% casein-hydrolyzed peptide, 43° C.
# Experimental: as §1, §2, §3, §4
# [5] = tested on: Lactobacillus delbrueckii subsp. bulgaricus OLL1073R-1; test: as above; settings: adenylic acid 0.05 mmol/kg or 1:1 mixture 0.025% (wt/wt); UHT sterilized milk with 0.2% casein-hydrolyzed peptide, 43° C.
# Experimental: as §1, §2, §3, §4
# [6] = tested on: Leuconostoc lactis OLS5167; test: as above; settings: adenylic acid 0.05 mmol/kg or 1:1 mixture 0.025% (wt/wt); UHT sterilized milk with 0.2% casein-hydrolyzed peptide, 43° C.
# Experimental: as §1, §2, §3, §4
# [7] = tested on: Lactobacillus johnsonii OLL2725; test: Fermentation promoting effect in UHT sterilized milk with casein-hydrolyzed peptide, pH over time; settings: adenylic acid 0.05 mmol/kg or 1:1 mixture 0.025% (wt/wt); UHT sterilized milk with 0.2% casein-hydrolyzed peptide, 43° C.
# [8] = tested on: Lactobacillus acidophilus OLL1836; test: as above; settings: adenylic acid 0.05 mmol/kg or 1:1 mixture 0.025% (wt/wt); UHT sterilized milk with 0.2% casein-hydrolyzed peptide, 43° C.
Compound,fermentation promoting effect (pH of the fermentation liquid over time vs control) [1],further results
Nc1ncnc2nc[nH]c12 [adenine],notable fermentation promoting effects,–
Nc1ncnc2c1ncn2[C@@H]1O[C@H](CO)[C@@H](O)[C@H]1O [adenosine],notable fermentation promoting effects,fermentation promoting effect (pH over time) of mixtures with guanosine in different mixing ratios [1]: exhibit the fermentation promoting effect in a concentration-dependent manner
Nc1ccn([C@@H]2O[C@H](CO)[C@@H](O)[C@H]2O)c(=O)n1 [cytidine],did not exhibit the fermentation promoting effects,–
Nc1cc[nH]c(=O)n1 [cytosine],did not exhibit the fermentation promoting effects,–
Nc1ncnc2c1ncn2[C@H]1C[C@H](O)[C@@H](CO)O1 [deoxyadenosine],notable fermentation promoting effects,–
Nc1nc2c(ncn2[C@H]2C[C@H](O)[C@@H](CO)O2)c(=O)[nH]1 [deoxyguanosine],did not exhibit the fermentation promoting effects,–
OC[C@H]1O[C@@H](n2cnc3c(O)ncnc32)C[C@@H]1O [deoxyinosine],notable fermentation promoting effects,–
Nc1nc2nc[nH]c2c(=O)[nH]1 [guanine],did not exhibit the fermentation promoting effects,–
Nc1nc2c(ncn2[C@@H]2O[C@H](CO)[C@@H](O)[C@H]2O)c(=O)[nH]1 [guanosine],did not exhibit the fermentation promoting effects,fermentation promoting effect (pH over time) of mixtures with guanosine in different mixing ratios [1]: does not exhibit the fermentation promoting effect
O=c1[nH]cnc2nc[nH]c12 [hypoxanthine],notable fermentation promoting effects,–
OC[C@H]1O[C@@H](n2cnc3c(O)ncnc32)[C@H](O)[C@@H]1O [inosine],notable fermentation promoting effects,fermentation promoting effect (pH over time) of mixtures with guanosine in different mixing ratios [1]: exhibit the fermentation promoting effect in a concentration-dependent manner
Cc1cn([C@H]2C[C@H](O)[C@@H](CO)O2)c(=O)[nH]c1=O [thymidine],did not exhibit the fermentation promoting effects,–
Cc1c[nH]c(=O)[nH]c1=O [thymine],did not exhibit the fermentation promoting effects,–
O=c1cc[nH]c(=O)[nH]1 [uracil],did not exhibit the fermentation promoting effects,–
O=c1[nH]c(=O)c2[nH]c(=O)[nH]c2[nH]1 [uric acid],did not exhibit the fermentation promoting effects,–
O=c1ccn([C@@H]2O[C@H](CO)[C@@H](O)[C@H]2O)c(=O)[nH]1 [uridine],did not exhibit the fermentation promoting effects,–
O=c1[nH]c(=O)c2[nH]cnc2[nH]1 [xanthine],did not exhibit the fermentation promoting effects,–
adenylic acid [AMP],notable fermentation promoting effects,fermentation promoting effect (pH over time vs control) [2]: shown in all the strains tested; fermentation promoting effect (pH over time vs control) [3]: shown in all the strains tested; fermentation promoting effect (pH over time vs control) [4]: shown in all the strains tested; fermentation promoting effect (pH over time vs control) [5]: shown in all the strains tested; fermentation promoting effect (pH over time vs control) [6]: shown in all the strains tested; fermentation promoting effect (pH over time vs control) [7]: shown in all the strains tested; fermentation promoting effect (pH over time vs control) [8]: shown in all the strains tested
